Reference: patent US9790178B2, “Pyrrolidinyl urea, thiourea, guanidine and cyanoguanidine compounds as TrkA kinase inhibitors” (Array BioPharma Inc., priority 2012, dated 2017)

Legend:
Assay in all cases: KinaseProfiler off-target kinase profiling
Assay type in all cases: biochemical
Conditions in all cases: 10 μM, ATP near Km
EGFR = biological target: T1, EGFR (Homo sapiens, UniProt P00533)
T1 construct: purchased Millipore, Inc. (KinaseProfiler service)
Procedure, shortened: (§1)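 Values are percent of control (POC), the mean of two replicate runs. The compound was assayed at 10 μM, and the ATP level was set close to the Km of the individual kinase.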

TSSK2 = biological target: T2, TSSK2 (Homo sapiens, UniProt Q96PF2)
T2 construct: purchased Millipore, Inc. (KinaseProfiler service)
Procedure, shortened: as §1

STK33 = biological target: T3, STK33 (Homo sapiens, UniProt Q9BYT3)
T3 construct: purchased Millipore, Inc. (KinaseProfiler service)
Procedure, shortened: as §1

PAK5 = biological target: T4, PAK5 (Homo sapiens, UniProt Q9P286)
T4 construct: purchased Millipore, Inc. (KinaseProfiler service)
Procedure, shortened: as §1

Mer = biological target: T5, Mer (Homo sapiens, UniProt Q12866)
T5 construct: purchased Millipore, Inc. (KinaseProfiler service)
Procedure, shortened: as §1

IRAK4 = biological target: T6, IRAK4 (Homo sapiens, UniProt Q9NWZ3)
T6 construct: purchased Millipore, Inc. (KinaseProfiler service)
Procedure, shortened: as §1

MAP4K2 = biological target: T7, MAP4K2 (Homo sapiens, UniProt Q12851)
T7 construct: purchased Millipore, Inc. (KinaseProfiler service)
Procedure, shortened: as §1

DYRK2 = biological target: T8, DYRK2 (Homo sapiens, UniProt Q92630)
T8 construct: purchased Millipore, Inc. (KinaseProfiler service)
Procedure, shortened: as §1

MSK2 = biological target: T9, MSK2 (Homo sapiens, UniProt O75676)
T9 construct: purchased Millipore, Inc. (KinaseProfiler service)
Procedure, shortened: as §1

MKK4_m = biological target: T10, MKK4_m (Mus musculus, UniProt P47809)
T10 construct: purchased Millipore, Inc. (KinaseProfiler service)
Procedure, shortened: as §1

TNK2 = biological target: T11, TNK2 (Homo sapiens, UniProt Q07912)
T11 construct: purchased Millipore, Inc. (KinaseProfiler service)
Procedure, shortened: as §1

MAP3K5 = biological target: T12, MAP3K5 (Homo sapiens, UniProt Q99683)
T12 construct: purchased Millipore, Inc. (KinaseProfiler service)
Procedure, shortened: as §1

TAO3 = biological target: T13, TAO3 (Homo sapiens, UniProt Q9H2K8)
T13 construct: purchased Millipore, Inc. (KinaseProfiler service)
Procedure, shortened: as §1

SRC = biological target: T14, SRC (Homo sapiens, UniProt P12931)
T14 construct: purchased Millipore, Inc. (KinaseProfiler service)
Procedure, shortened: as §1

SIK = biological target: T15, SIK (Homo sapiens, UniProt P57059)
T15 construct: purchased Millipore, Inc. (KinaseProfiler service)
Procedure, shortened: as §1

CAMK2b = biological target: T16, CAMK2b (Homo sapiens, UniProt Q13554)
T16 construct: purchased Millipore, Inc. (KinaseProfiler service)
Procedure, shortened: as §1

PrKX = biological target: T17, PrKX (Homo sapiens, UniProt P51817)
T17 construct: purchased Millipore (KinaseProfiler service)
Procedure, shortened: as §1

EphB3 = biological target: T18, EphB3 (Homo sapiens, UniProt P54753)
T18 construct: purchased Millipore, Inc. (KinaseProfiler service)
Procedure, shortened: as §1

HIPK1 = biological target: T19, HIPK1 (Homo sapiens, UniProt Q86Z02)
T19 construct: purchased Millipore, Inc. (KinaseProfiler service)
Procedure, shortened: as §1

EphB1 = biological target: T20, EphB1 (Homo sapiens, UniProt P54762)
T20 construct: purchased Millipore, Inc. (KinaseProfiler service)
Procedure, shortened: as §1

JNK3 = biological target: T21, JNK3 (Homo sapiens, UniProt P53779)
T21 construct: purchased Millipore, Inc. (KinaseProfiler service)
Procedure, shortened: as §1

ErbB4 = biological target: T22, ErbB4 (Homo sapiens, UniProt Q15303)
T22 construct: purchased Millipore, Inc. (KinaseProfiler service)
Procedure, shortened: as §1

CK1_y = tested on: CK1_y
Procedure, shortened: as §1

EphA1 = biological target: T23, EphA1 (Homo sapiens, UniProt P21709)
T23 construct: purchased Millipore, Inc. (KinaseProfiler service)
Procedure, shortened: as §1

IR Activated = biological target: T24, IR Activated (Homo sapiens, UniProt P06213)
T24 construct: purchased Millipore, Inc. (KinaseProfiler service)
Procedure, shortened: as §1

Pim-3 = biological target: T25, Pim-3 (Homo sapiens, UniProt Q86V86)
T25 construct: purchased Millipore, Inc. (KinaseProfiler service)
Procedure, shortened: as §1

DAPK1 = biological target: T26, DAPK1 (Homo sapiens, UniProt P53355)
T26 construct: purchased Millipore, Inc. (KinaseProfiler service)
Procedure, shortened: as §1

DCAMKL2 = biological target: T27, DCAMKL2 (Homo sapiens, UniProt Q8N568)
T27 construct: purchased Millipore, Inc. (KinaseProfiler service)
Procedure, shortened: as §1

PKCbetaI = biological target: T28, PKCbetaI (Homo sapiens, UniProt P05771)
T28 construct: purchased Millipore, Inc. (KinaseProfiler service)
Procedure, shortened: as §1

p38delta = biological target: T29, p38delta (Homo sapiens, UniProt O15264)
T29 construct: purchased Millipore, Inc. (KinaseProfiler service)
Procedure, shortened: as §1

CSK = biological target: T30, CSK (Homo sapiens, UniProt P41240)
T30 construct: purchased Millipore, Inc. (KinaseProfiler service)
Procedure, shortened: as §1

Fgr = biological target: T31, Fgr (Homo sapiens, UniProt P09769)
T31 construct: purchased Millipore, Inc. (KinaseProfiler service)
Procedure, shortened: as §1

DAPK2 = biological target: T32, DAPK2 (Homo sapiens, UniProt Q9UIK4)
T32 construct: purchased Millipore, Inc. (KinaseProfiler service)
Procedure, shortened: as §1

CAMK4 = biological target: T33, CAMK4 (Homo sapiens, UniProt Q16566)
T33 construct: purchased Millipore, Inc. (KinaseProfiler service)
Procedure, shortened: as §1

Txk = biological target: T34, Txk (Homo sapiens, UniProt P42681)
T34 construct: purchased Millipore, Inc. (KinaseProfiler service)
Procedure, shortened: as §1

Flt4 = biological target: T35, Flt4 (Homo sapiens, UniProt P35916)
T35 construct: purchased Millipore, Inc. (KinaseProfiler service)
Procedure, shortened: as §1

PRKG1alpha = biological target: T36, PRKG1alpha (Homo sapiens, UniProt Q13976)
T36 construct: purchased Millipore (KinaseProfiler service)
Procedure, shortened: as §1

IRAK1 = biological target: T37, IRAK1 (Homo sapiens, UniProt P51617)
T37 construct: purchased Millipore, Inc. (KinaseProfiler service)
Procedure, shortened: as §1

MINK = biological target: T38, MINK (Homo sapiens, UniProt Q8N4C8)
T38 construct: purchased Millipore, Inc. (KinaseProfiler service)
Procedure, shortened: as §1

GSK3beta = biological target: T39, GSK3beta (Homo sapiens, UniProt P49841)
T39 construct: purchased Millipore, Inc. (KinaseProfiler service)
Procedure, shortened: as §1

PKCmu = biological target: T40, PKCmu (Homo sapiens, UniProt Q15139)
T40 construct: purchased Millipore (KinaseProfiler service)
Procedure, shortened: as §1

T12 sequence (Q99683 whole entry): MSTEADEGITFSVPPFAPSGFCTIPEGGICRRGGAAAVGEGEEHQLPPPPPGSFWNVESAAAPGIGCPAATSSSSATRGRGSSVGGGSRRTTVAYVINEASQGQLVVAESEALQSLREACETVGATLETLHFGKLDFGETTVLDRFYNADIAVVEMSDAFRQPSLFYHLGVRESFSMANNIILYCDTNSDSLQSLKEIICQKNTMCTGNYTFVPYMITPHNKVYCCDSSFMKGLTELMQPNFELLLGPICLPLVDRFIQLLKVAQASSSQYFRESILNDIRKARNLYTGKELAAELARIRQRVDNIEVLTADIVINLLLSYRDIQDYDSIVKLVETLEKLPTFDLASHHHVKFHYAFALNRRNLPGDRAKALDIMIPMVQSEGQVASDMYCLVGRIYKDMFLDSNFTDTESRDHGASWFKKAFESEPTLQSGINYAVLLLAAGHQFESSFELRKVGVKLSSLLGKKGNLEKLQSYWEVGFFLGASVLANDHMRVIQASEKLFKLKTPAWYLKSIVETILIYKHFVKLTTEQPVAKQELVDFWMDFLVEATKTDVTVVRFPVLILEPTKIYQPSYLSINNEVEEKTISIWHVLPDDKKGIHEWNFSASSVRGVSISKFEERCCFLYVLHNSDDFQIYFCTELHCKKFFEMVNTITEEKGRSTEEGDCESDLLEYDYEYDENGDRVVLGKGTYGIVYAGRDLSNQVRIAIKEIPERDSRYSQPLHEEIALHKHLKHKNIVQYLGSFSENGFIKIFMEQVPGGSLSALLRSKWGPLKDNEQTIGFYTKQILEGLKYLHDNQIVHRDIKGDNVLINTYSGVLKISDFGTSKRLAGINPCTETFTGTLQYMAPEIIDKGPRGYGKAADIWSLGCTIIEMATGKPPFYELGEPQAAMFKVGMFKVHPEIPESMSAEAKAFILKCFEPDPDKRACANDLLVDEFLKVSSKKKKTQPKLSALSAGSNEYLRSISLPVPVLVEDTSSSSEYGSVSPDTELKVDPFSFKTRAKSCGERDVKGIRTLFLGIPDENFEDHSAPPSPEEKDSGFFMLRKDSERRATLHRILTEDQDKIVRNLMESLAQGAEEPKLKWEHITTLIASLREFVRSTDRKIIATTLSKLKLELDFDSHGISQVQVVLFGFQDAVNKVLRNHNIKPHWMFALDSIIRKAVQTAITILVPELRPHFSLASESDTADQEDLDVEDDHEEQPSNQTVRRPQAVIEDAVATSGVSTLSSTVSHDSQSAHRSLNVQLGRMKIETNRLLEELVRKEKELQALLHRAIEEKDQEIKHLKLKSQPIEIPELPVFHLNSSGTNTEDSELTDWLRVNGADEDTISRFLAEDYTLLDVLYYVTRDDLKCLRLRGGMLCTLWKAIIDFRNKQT
T4 sequence (Q9P286 whole entry): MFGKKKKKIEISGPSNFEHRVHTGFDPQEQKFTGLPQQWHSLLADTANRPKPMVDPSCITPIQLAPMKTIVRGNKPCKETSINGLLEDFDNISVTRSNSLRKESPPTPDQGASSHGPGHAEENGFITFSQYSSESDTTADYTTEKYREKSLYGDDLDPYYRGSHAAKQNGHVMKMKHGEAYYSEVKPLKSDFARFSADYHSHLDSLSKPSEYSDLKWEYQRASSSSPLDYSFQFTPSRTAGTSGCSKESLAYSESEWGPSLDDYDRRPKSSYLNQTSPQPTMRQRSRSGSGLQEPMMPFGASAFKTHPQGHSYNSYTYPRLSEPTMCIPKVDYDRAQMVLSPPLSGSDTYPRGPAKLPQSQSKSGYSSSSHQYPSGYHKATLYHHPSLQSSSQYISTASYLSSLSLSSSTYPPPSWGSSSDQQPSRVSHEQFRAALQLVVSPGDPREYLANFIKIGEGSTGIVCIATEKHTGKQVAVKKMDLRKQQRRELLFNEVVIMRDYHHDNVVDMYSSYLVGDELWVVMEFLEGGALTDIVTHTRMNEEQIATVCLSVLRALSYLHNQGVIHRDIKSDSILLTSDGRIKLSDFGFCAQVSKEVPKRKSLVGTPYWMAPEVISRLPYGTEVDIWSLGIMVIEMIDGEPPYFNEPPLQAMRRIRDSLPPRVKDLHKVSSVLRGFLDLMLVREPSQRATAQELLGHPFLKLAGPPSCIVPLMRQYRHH
T19 sequence (Q86Z02 whole entry): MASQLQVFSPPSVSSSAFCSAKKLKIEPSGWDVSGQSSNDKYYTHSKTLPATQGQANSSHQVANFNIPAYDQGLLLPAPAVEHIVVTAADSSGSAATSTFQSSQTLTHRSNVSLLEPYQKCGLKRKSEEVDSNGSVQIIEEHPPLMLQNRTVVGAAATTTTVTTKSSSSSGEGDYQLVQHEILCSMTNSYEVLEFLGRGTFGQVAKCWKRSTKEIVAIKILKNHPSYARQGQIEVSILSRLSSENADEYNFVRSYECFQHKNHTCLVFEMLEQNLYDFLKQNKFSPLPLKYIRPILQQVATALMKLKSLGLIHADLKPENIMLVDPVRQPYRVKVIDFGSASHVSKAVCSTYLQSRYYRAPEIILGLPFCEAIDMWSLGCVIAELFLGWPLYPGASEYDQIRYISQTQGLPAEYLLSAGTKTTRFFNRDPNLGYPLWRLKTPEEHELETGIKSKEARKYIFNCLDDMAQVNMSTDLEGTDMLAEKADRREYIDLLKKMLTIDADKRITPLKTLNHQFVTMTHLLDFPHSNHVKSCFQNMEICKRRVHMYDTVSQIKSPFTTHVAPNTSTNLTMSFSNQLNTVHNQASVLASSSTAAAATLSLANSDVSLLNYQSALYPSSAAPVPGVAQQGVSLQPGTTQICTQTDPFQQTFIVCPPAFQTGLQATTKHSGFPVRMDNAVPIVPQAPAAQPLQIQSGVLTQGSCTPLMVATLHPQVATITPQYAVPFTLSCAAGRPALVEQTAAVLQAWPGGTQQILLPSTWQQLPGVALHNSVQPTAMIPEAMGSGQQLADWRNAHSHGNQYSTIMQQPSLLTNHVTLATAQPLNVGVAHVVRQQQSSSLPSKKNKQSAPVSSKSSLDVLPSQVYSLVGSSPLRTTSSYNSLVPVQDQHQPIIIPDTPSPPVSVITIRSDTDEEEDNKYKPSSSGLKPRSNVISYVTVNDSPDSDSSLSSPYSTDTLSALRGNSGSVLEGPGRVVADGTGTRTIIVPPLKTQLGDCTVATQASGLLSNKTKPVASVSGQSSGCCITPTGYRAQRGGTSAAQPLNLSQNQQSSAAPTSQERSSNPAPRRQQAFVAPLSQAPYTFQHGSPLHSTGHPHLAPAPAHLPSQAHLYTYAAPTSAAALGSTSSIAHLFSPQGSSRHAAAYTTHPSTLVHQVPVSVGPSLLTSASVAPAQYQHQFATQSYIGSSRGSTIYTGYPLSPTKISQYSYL
T13 sequence (Q9H2K8 whole entry): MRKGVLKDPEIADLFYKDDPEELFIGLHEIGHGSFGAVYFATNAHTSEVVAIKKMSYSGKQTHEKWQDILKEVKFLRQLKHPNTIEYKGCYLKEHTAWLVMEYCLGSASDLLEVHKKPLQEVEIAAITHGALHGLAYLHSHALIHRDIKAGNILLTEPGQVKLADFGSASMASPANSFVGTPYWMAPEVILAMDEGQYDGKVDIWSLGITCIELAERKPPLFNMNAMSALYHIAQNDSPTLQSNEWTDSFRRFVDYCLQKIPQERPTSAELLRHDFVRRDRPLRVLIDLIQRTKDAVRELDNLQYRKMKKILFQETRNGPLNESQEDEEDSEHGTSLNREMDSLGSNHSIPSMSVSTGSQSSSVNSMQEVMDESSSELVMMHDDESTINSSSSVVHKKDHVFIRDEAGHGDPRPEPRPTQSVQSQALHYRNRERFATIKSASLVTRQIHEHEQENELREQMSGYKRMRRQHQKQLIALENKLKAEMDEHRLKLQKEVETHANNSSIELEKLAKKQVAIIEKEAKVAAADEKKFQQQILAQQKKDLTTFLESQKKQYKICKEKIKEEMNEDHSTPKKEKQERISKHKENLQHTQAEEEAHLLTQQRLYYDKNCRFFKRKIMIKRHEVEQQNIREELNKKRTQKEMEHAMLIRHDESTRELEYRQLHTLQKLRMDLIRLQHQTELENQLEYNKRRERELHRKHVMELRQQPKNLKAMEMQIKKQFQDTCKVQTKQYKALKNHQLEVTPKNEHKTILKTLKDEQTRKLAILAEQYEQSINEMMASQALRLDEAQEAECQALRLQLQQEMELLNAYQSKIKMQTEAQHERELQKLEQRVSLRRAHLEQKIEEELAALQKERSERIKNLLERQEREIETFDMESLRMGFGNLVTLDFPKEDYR
T14 sequence (P12931 whole entry): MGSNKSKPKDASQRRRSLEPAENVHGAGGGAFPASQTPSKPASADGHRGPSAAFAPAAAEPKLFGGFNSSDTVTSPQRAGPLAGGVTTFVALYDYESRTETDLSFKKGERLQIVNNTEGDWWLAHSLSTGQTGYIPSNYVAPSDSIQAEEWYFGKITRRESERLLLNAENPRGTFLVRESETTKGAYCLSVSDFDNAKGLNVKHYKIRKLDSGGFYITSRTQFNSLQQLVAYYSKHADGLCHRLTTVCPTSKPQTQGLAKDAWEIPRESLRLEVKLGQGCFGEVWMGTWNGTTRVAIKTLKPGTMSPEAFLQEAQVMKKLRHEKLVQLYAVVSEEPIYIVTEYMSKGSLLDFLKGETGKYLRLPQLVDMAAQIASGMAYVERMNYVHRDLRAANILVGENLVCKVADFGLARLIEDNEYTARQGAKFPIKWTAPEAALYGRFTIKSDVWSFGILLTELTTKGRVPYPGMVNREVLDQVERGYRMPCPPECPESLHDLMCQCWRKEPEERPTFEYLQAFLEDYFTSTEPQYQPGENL

COCCN1C[C@@H](NC(=O)Nc2c(-c3ccccc3)nc3c(C)nccn23)[C@H](c2ccc(F)c(F)c2)C1 [Example 20, 1-((3S,4R)-4-(3,4-difluorophenyl)-1-(2-methoxyethyl)pyrrolidin-3-yl)-3-(8-methyl-2-phenylimidazo[1,2-a]pyrazin-3-yl)urea]
Avg. POC (EGFR): 107.5 POC | Avg. POC (TSSK2): 106 POC | Avg. POC (STK33): 109.5 POC | Avg. POC (PAK5): 105.5 POC | Avg. POC (Mer): 116.5 POC | Avg. POC (IRAK4): 124 POC | Avg. POC (MAP4K2): 112 POC | Avg. POC (DYRK2): 85.5 POC | Avg. POC (MSK2): 126 POC | Avg. POC (MKK4_m): 113 POC | Avg. POC (TNK2): 94.5 POC | Avg. POC (MAP3K5): 88 POC | Avg. POC (TAO3): 103 POC | Avg. POC (SRC): 107 POC | Avg. POC (SIK): 97.5 POC | Avg. POC (CAMK2b): 102 POC | Avg. POC (PrKX): 120.5 POC | Avg. POC (EphB3): 107 POC | Avg. POC (HIPK1): 111 POC | Avg. POC (EphB1): 85 POC | Avg. POC (JNK3): 124.5 POC | Avg. POC (ErbB4): 97.5 POC | Avg. POC (CK1_y): 104 POC | Avg. POC (EphA1): 99 POC | Avg. POC (IR Activated): 108 POC | Avg. POC (Pim-3): 98 POC | Avg. POC (DAPK1): 103 POC | Avg. POC (DCAMKL2): 126.5 POC | Avg. POC (PKCbetaI): 101 POC | Avg. POC (p38delta): 105 POC | Avg. POC (CSK): 104.5 POC | Avg. POC (Fgr): 121 POC | Avg. POC (DAPK2): 104 POC | Avg. POC (CAMK4): 105 POC | Avg. POC (Txk): 130 POC | Avg. POC (Flt4): 110.5 POC | Avg. POC (PRKG1alpha): 111.5 POC | Avg. POC (IRAK1): 109.5 POC | Avg. POC (MINK): 99 POC | Avg. POC (GSK3beta): 129 POC | Avg. POC (PKCmu): 100.5 POC
